The experiment deals with T1, IP receptor (Homo sapiens, UniProt P43119).
T1 construct: expressed in transfected cells; host or cells: CHO cells stably expressing the IP receptor (CHO-IP)
The experiment is described as follows: cAMP accumulation in CHO cells stably expressing the IP receptor (CHO-IP), Perkin Elmer AlphaScreen assay. The experiment is classed as cell-based. The conditions noted are these: agonist activity, 1 hour at room temperature. As for the experimental part:
Activity of compounds at the IP receptor (IP receptor) is assessed by measuring cAMP accumulation in CHO cells stably expressing the IP receptor (CHO-IP) using the Perkin Elmer AlphaScreen assay. This technology measures the endogenous production of cAMP, in a non-radioactive luminescence proximity homogenous assay. A biological reaction occurs between streptavidin coated donor beads, biotinylated cAMP and anti-cAMP acceptor beads, bringing the donor and acceptor beads close enough together so that upon excitation a fluorescence signal is produced. On production of endogenous cAMP, competition between the biotinylated cAMP and cellular-derived cAMP causes a reduction in the fluorescent signal. The reduction in signal is proportional to the amount of cAMP being produced, thus it is possible to quantify the amount of cAMP being produced on stimulation with agonist.
Test and reference compounds are prepared at 100× [final] in 100% DMSO, and diluted 1:3 using a Biomek Fx (Beckman Coulter). This is followed by an intermediate dilution to give 5× [final] in assay buffer (HBSS containing 5 mM HEPES, 0.1% (w/v) BSA). 5 μL of 5× [final] test compounds, reference compounds and buffer/DMSO control are then transferred to a 384-well white OptiPlate, containing 20 μL CHO-IP cell suspension (15,000 cells/well, prepared from frozen), and plate is incubated at room temperature for 1 hour. A cAMP standard curve is constructed for each experiment (concentration range of 10000 nM to 0.001 nM, in assay buffer) and 25 μL of each concentration added to the last two columns of the assay plate. The incubation is terminated by the addition of lysis buffer (dH2O; 0.3% (v v^−1) Tween-20) containing 20 units mL^−1 streptavidin coated donor beads and biotinylated cAMP (pre-incubated for 30 minutes) and 20 units mL^−1 anti-cAMP acceptor beads, which are added to the lysis buffer just before addition to the assay plate. The assay plate is then incubated at room temperature in the dark, for 60 minutes with gentle shaking, and read on the Envision plate reader (Perkin Elmer).
The raw data of the reference compounds, test compounds and controls are converted into cAMP concentrations, using the cAMP standard curve, in Graph Pad Prism (Graph Pad Software Inc). EC50 as well as maximal values of the agonist curves are determined using a 4-parameter logistic equation. The % maximum response values of all test compounds are determined using the top of the treprostinil concentration-response curve.

T1 sequence (P43119 whole entry): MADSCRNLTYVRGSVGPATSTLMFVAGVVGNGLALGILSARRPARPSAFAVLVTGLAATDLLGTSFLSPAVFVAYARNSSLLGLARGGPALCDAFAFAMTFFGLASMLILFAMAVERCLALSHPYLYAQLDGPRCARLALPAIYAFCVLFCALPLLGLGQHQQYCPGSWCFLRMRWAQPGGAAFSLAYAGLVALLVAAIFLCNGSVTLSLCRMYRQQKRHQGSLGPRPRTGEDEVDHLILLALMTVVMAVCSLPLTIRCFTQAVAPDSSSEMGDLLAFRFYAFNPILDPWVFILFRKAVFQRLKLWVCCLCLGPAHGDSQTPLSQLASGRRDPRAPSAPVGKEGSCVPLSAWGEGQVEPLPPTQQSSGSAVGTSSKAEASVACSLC

Regarding `COC1CCN(CCCCCCC(=O)O)c2nc(-c3ccc(C)cc3)c(-c3ccc(C)cc3)nc21` (racemic) [Example 3.1, rac-7-(8-Methoxy-2,3-di-p-tolyl-7,8-dihydropyrido[2,3-b]pyrazin-5(6H)-yl)heptanoic acid], the midpoint of the response, the EC50, lay at 0.8 nM.
Consider `COC1(C)CCN(CCCCCCC(=O)O)c2nc(-c3ccc(C)cc3)c(-c3ccc(C)cc3)nc21` (racemic) [Example 15, rac-7-(8-Methoxy-8-methyl-2,3-di-p-tolyl-7,8-dihydropyrido[2,3-b]pyrazin-5(6H)-yl)heptanoic acid], for which the midpoint of the response, the EC50, lay at 0.3 nM.
As to `Cc1ccc(-c2nc3c(nc2-c2ccc(C)cc2)N(CCCCC(O)CC(=O)O)CCC3)cc1` (racemic) [Example 17, rac-7-(2,3-Di-p-tolyl-7,8-dihydropyrido[2,3-b]pyrazin-5(6H)-yl)-3-hydroxyheptanoic acid], the EC50 is 1.8 nM.
With `Cc1ccc(-c2nc3c(nc2-c2ccc(C)cc2)N(CCCCCCC(=O)O)C(=O)C(C(C)(C)O)C3)cc1` (single isomer, unassigned) [1.1(i), (R)-7-(7-(2-hydroxypropan-2-yl)-6-oxo-2,3-di-p-tolyl-7,8-dihydropyrido[2,3-b]pyrazin-5(6H)-yl)heptanoic acid or (S)-7-(7-(2-hydroxypropan-2-yl)-6-oxo-2,3-di-p-tolyl-7,8-dihydropyrido[2,3-b]pyrazin-5(6H)-yl)heptanoic acid], the response was half-maximal at 0.3 nM (EC50).
`Cc1ccc(-c2nc3c(nc2-c2ccc(C)cc2)N(CCCCCCC(=O)O)C(=O)C(C(C)(C)O)C3)cc1` (single isomer, unassigned) [1.1(ii), (R)-7-(7-(2-hydroxypropan-2-yl)-6-oxo-2,3-di-p-tolyl-7,8-dihydropyrido[2,3-b]pyrazin-5(6H)-yl)heptanoic acid or (S)-7-(7-(2-hydroxypropan-2-yl)-6-oxo-2,3-di-p-tolyl-7,8-dihydropyrido[2,3-b]pyrazin-5(6H)-yl)heptanoic acid]: the EC50 was 0.6 nM.
For the molecule `CCC1CCc2nc(-c3ccc(C)cc3)c(-c3ccc(C)cc3)nc2N1CCCCCCC(=O)O` (single isomer, unassigned) [2.3(i), (R)-7-(6-Ethyl-2,3-di-p-tolyl-7,8-dihydropyrido[2,3-b]pyrazin-5(6H)-yl)heptanoic acid or (S)-7-(6-Ethyl-2,3-di-p-tolyl-7,8-dihydropyrido[2,3-b]pyrazin-5(6H)-yl)heptanoic acid], the response was half-maximal at 4.8 nM (EC50). Compared with the last molecule, the EC50 is about 8-fold higher.
The molecule `CCC1CCc2nc(-c3ccc(C)cc3)c(-c3ccc(C)cc3)nc2N1CCCCCCC(=O)O` (single isomer, unassigned) [2.3(ii), (R)-7-(6-Ethyl-2,3-di-p-tolyl-7,8-dihydropyrido[2,3-b]pyrazin-5(6H)-yl)heptanoic acid or (S)-7-(6-Ethyl-2,3-di-p-tolyl-7,8-dihydropyrido[2,3-b]pyrazin-5(6H)-yl)heptanoic acid] gave a 50% effective concentration (EC50) of 0.3 nM.
To `Cc1ccc(-c2nc3c(nc2-c2ccc(C)cc2)N(CCCCCCC(=O)O)CC(C(C)(C)O)C3)cc1` (single isomer, unassigned) [9.2(i), (R)-7-(7-(2-hydroxypropan-2-yl)-2,3-di-p-tolyl-7,8-dihydropyrido[2,3-b]pyrazin-5(6H)-yl)heptanoic acid or (S)-7-(7-(2-hydroxypropan-2-yl)-2,3-di-p-tolyl-7,8-dihydropyrido[2,3-b]pyrazin-5(6H)-yl)heptanoic acid] belongs 12.7 nM; to `Cc1ccc(-c2nc3c(nc2-c2ccc(C)cc2)N(CCCCCCC(=O)O)C(=O)C(O)C3)cc1` (single isomer, unassigned) [11(i), (R)-7-(7-hydroxy-6-oxo-2,3-di-p-tolyl-7,8-dihydropyrido[2,3-b]pyrazin-5(6H)-yl) heptanoic acid or (S)-7-(7-hydroxy-6-oxo-2,3-di-p-tolyl-7,8-dihydropyrido[2,3-b]pyrazin-5(6H)-yl) heptanoic acid], 0.3 nM.

As a reminder, the EC50 is the concentration that produces a half-maximal response. Read a high EC50 as weaker potency.

The values are drawn from patent US9115129B2, “Substituted pyrido[2,3-B]pyrazines as IP receptor agonists” (Novartis AG, priority 2012, dated 2015).
